From patent publication US20230277452A1, “COMPOSITIONS, DEVICES AND METHODS FOR TREATING NASAL, OTIC AND OTHER TISSUE INFECTION AND/OR INFLAMMATION” (priority 2020, published 2023)

Assay: Recovery of force-degraded MFM spiked into placebo cream and of active cream (0.1% MFM), HPLC
Assay type: physicochemical
Protocol: MFM neat and degraded materials were spiked into placebo cream (lot #2020-11-01) to investigate potential partitioning effects and peak interferences and to compare spiked and active cream samples by the procedure in Table 50 with the exception that for acid, base and peroxide degradations, the additions of HCl, NaOH and peroxide were calculated accordingly.
Percent recovery of Force-Degraded Materials Spiked into Placebo is provided in Table 51 below while recovery of active cream formulation (0.1% MFM) is provided in Table 52 below.

Compound: C[C@@H]1C[C@H]2[C@@H]3CCC4=CC(=O)C=C[C@]4(C)[C@@]3(Cl)[C@@H](O)C[C@]2(C)[C@@]1(OC(=O)c1ccco1)C(=O)CCl.O [Mometasone Furoate Momohydrate]
- Difference with Placebo (neat vs spiked recovery) (0.1N HC1 (1 hour)): 5.23%
- Difference with Placebo (neat vs spiked recovery) (0.1N NaOH (1 hour)): 0.13%
- Difference with Placebo (neat vs spiked recovery) (3% H2O2 (1 hour)): 5.20%
- Difference with Placebo (neat vs spiked recovery) (60° C. (5 days)): 4.96%
- Difference with Placebo (neat vs spiked recovery) (Control (neat MFM)): 5.87%
- Difference with Placebo (neat vs spiked recovery) (White light (5 days)): 5.29%
